Read-outs that look alike come from different tables or passages of the source.
What was measured:
Gastric Motor of Dogs = assay: Effect (GMS activity) on gastric motor of dogs (strain gauge force transducer, gastric antrum, i.v.); type: in vivo, dogs (Beagles); conditions: for ED200: dogs; for GMS activity compared with starting compound: compared with the respective starting compounds (1) and (2); for gastrointestinal motor promoting effect: in vivo test of dogs, in words
From the text: Effect (GMS activity) on Gastric Motor of Dogs was studied.
Beagles having a body weigh of about 10 kg were subjected to laparotomy under pentobarbital anesthesia, and a strain gauge force transducer was attached to the gastric antrum of each of the beagles. The beagles were used for the experiment more than 2 weeks after the operation. A lead wire of the strain gauge force transducer was connected to a recorder through an amplifier and the recorder records gastric contractions. Signals from the amplifier were supplied to a signal processor (NEC Sanei).
Each of the test compounds was dissolved in ethanol, and lactobionic acid (1 mg/mg of test compound) was added thereto, followed by dilution with physiological saline. The resulting solution was intravenously given 15 minutes after termination of the natural interdigestive migrating contractions.
The area of gastric contractions induced by administration of the test compounds was measured by use of the signal processor. Taking the area at the time that the maximum contraction of the interdigestive migrating contractions was kept for 1 minute as 100%, the dosage inducing a contraction area of 200% (ED200 value) was determined from dosage action curves.
The action (GMS activity) of the above-mentioned compounds on the gastric motor of the dogs was measured.
The measurement was carried out in a manner similar to that of Experimental Example 1.

[1] = Metabolite formation and distribution in dogs after i.v. lactobionate of compound (1); type: in vivo; conditions: dog, lactobionate of compound (1) 10 mg/kg, iv
Experimental: (§1) Namely, the present inventors found an active metabolite in vivo which promoted the gastrointestinal motor function (had GMS activity), when compound (1) or (2) of 14-membered ring macrolides having the structural formula shown in Table 1 below were given to the animals. Compound (1) was intravenously given to the dogs, followed by solvent extraction from the livers 30 minutes after administration, chromatography and preparative HPLC to 15 obtain two active metabolites, compounds (3) and (4). The present inventors were able to determine that the chemical structures of these compounds were 15- and 14-hydroxyl derivatives of compound (1), respectively. Compound (2) was treated similarly to obtain corresponding compounds (7) and (8).
(§2) The lactobionate of the compound (1) (10 mg/kg, iv) was injected into the fore-limb of the dog, and the blood, the liver, the bile and the urine were subjected to HP-20 chromatography. After extraction with ethyl acetate, active metabolites were determined. […] The liver was collected 30 minutes after administration, and an extracted concentrated solution thereof was subjected to HP-20 chromatography. The 80% v/v methanol/0.005N HCl fraction was extracted with ethyl acetate, and then, the extract was concentrated to obtain a powder. […]

gastrointestinal motor = assay: GMS activity of metabolites isolated from dogs; type: in vivo; conditions: metabolites after compound (1), dog 10 mg/kg iv
Experimental: as §1
First, the present inventors examined whether or not metabolites promoting the gastrointestinal motor (having GMS activity) were formed in vivo when the compound (1) or (2), the 6,9-hemiacetal-erythromycin derivative known in the art, was given to the animal.
as §2, with “chromatography.” for “chromatography. The 80% v/v methanol/0.005N HCl fraction was extracted with ethyl acetate, and then, the extract was concentrated to obtain a powder.”

[2] = Physicochemical nature (basicity, fat solubility)
[3] = tested on: gastrointestinal peristaltic movement; conditions: literature; cited from earlier work
mice = assay: Acute toxicity test using mice (intravenous injection); type: in vivo; conditions: 100 mg/kg
[4] = Canis lupus familiaris, iv, Table 3, dose inducing contraction area of 200%, i.v., as lactobionic acid solution, read-out: ED200
[5] = Canis lupus familiaris, iv, Table 4, Experimental Example 2, similar to Experimental Example 1, read-out: ED200

basicity and fat solubility [2] | Compound | ED200 (Gastric Motor of Dogs; [4]) [µg/kg] | GMS activity compared with starting compound (Gastric Motor of Dogs) | gastrointestinal motor promoting effect (Gastric Motor of Dogs) | other results
– | CC[C@H]1OC(=O)[C@H](C)[C@@H](O[C@H]2C[C@@](C)(OC)[C@@H](O)[C@H](C)O2)[C@H](C)[C@@H](O[C@@H]2O[C@H](C)C[C@H](N(C)C(C)C)[C@H]2O)[C@@]2(C)CC(C)=C(O2)[C@H](C)[C@@H](O)[C@]1(C)O [Compound (1), reference compound] | 0.9 | – | – | ED200 (Gastric Motor of Dogs; Table 4, Experimental Example 2, similar to Experimental Example 1): 0.9 µg/kg; presence in blood, liver, bile and urine [1]: largely present in the blood
– | CC[C@H]1OC(=O)[C@H](C)[C@@H](O[C@H]2C[C@@](C)(OC)[C@@H](O)[C@H](C)O2)[C@H](C)[C@@H](O[C@@H]2O[C@H](C)C[C@H](N(C)CC)[C@H]2O)[C@@]2(C)CC(C)=C(O2)[C@H](C)[C@@H](O)[C@]1(C)O [Compound (2), reference compound] | 8 | – | – | –
basic fat-soluble properties | CO[C@]1(C)C[C@H](O[C@H]2[C@H](C)[C@@H](O[C@@H]3O[C@H](C)C[C@H](N(C)C(C)C)[C@H]3O)[C@@]3(C)CC(C)=C(O3)[C@H](C)[C@@H](O)[C@](C)(O)[C@@H](CCO)OC(=O)[C@@H]2C)O[C@@H](C)[C@@H]1O [Compound (3), N-demethyl-15-hydroxy-N-isopropyl-8,9-anhydroerythromycin A 6,9-hemiacetal] | 0.5 | stronger GMS activity than the respective starting compounds | strong gastrointestinal motor promoting effect | GMS activity of metabolites / fractions (gastrointestinal motor): active
basic fat-soluble properties | CO[C@]1(C)C[C@H](O[C@H]2[C@H](C)[C@@H](O[C@@H]3O[C@H](C)C[C@H](N(C)C(C)C)[C@H]3O)[C@@]3(C)CC(C)=C(O3)[C@H](C)[C@@H](O)[C@](C)(O)[C@@H](C(C)O)OC(=O)[C@@H]2C)O[C@@H](C)[C@@H]1O (stereo partly shown) [Compound (4), N-demethyl-14-hydroxy-N-isopropyl-8,9-anhydorerythromycin A 6,9-hemiacetal] | 0.4 | stronger GMS activity than the respective starting compounds | strong gastrointestinal motor promoting effect | GMS activity of metabolites / fractions (gastrointestinal motor): active
– | CC1=C2O[C@](C)(C1)[C@H](O[C@@H]1O[C@H](C)C[C@H](N(C)C(C)C)[C@H]1O)[C@@H](C)[C@H](O[C@H]1C[C@@](C)(O)[C@@H](O)[C@H](C)O1)[C@@H](C)C(=O)O[C@H](C(C)O)[C@@](C)(O)[C@H](O)[C@H]2C (stereo partly shown) [Compound (5), 3'-O-demethyl-N-demethyl-14-hydroxy-N-isopropyl-8,9-anhydroerythromycin A 6,9-hemiacetal] | – | stronger GMS activity than the starting compound (1) | – | ED200 (Gastric Motor of Dogs; [5]): 0.21 µg/kg
– | CC[C@H]1OC(=O)[C@H](C)[C@@H](O[C@H]2C[C@@](C)(O)[C@@H](O)[C@H](C)O2)[C@H](C)[C@@H](O[C@@H]2O[C@H](C)C[C@H](N(C)C(C)C)[C@H]2O)[C@@]2(C)CC(C)=C(O2)[C@H](C)[C@@H](O)[C@]1(C)O [Compound (6)] | – | stronger GMS activity than the starting compound (1) | – | ED200 (Gastric Motor of Dogs; [5]): 0.26 µg/kg
basic fat-soluble properties | CCN(C)[C@H]1C[C@@H](C)O[C@@H](O[C@@H]2[C@@H](C)[C@H](O[C@H]3C[C@@](C)(OC)[C@@H](O)[C@H](C)O3)[C@@H](C)C(=O)O[C@H](CCO)[C@@](C)(O)[C@H](O)[C@@H](C)C3=C(C)C[C@@]2(C)O3)[C@@H]1O [Compound (7), N-demethyl-15-hydroxy-N-ethyl-8,9-anhydroerythromycin A 6,9-hemiacetal] | 3.2 | stronger GMS activity than the respective starting compounds | strong gastrointestinal motor promoting effect | –
– | CC[C@H]1OC(=O)[C@H](C)[C@@H](O[C@H]2C[C@@](C)(OC)[C@@H](O)[C@H](C)O2)[C@H](C)[C@@H](O[C@@H]2O[C@H](C)C[C@H](N(C)C)[C@H]2O)[C@](C)(O)C[C@@H](C)C(=O)[C@H](C)[C@@H](O)[C@]1(C)O [ERM A, erythromycin A] | – | – | – | motilin-like action / GMS activity [3]: motilin-like action promoting the gastrointestinal peristaltic movement
– | CCN(C)[C@H]1C[C@@H](C)O[C@@H](O[C@@H]2[C@@H](C)[C@H](O[C@H]3C[C@@](C)(OC)[C@@H](O)[C@H](C)O3)[C@@H](C)C(=O)O[C@H](C(C)O)[C@@](C)(O)[C@H](O)[C@@H](C)C3=C(C)C[C@@]2(C)O3)[C@@H]1O (stereo partly shown) [lactobionate of the compound (8)] | – | – | – | death in acute toxicity test (mice): no case of death was observed

Compound | basicity and fat solubility [2] | ED200 (Gastric Motor of Dogs; [4]) [µg/kg] | GMS activity compared with starting compound (Gastric Motor of Dogs) | gastrointestinal motor promoting effect (Gastric Motor of Dogs) | other results
CCN(C)[C@H]1C[C@@H](C)O[C@@H](O[C@@H]2[C@@H](C)[C@H](O[C@H]3C[C@@](C)(OC)[C@@H](O)[C@H](C)O3)[C@@H](C)C(=O)O[C@H](C(C)O)[C@@](C)(O)[C@H](O)[C@@H](C)C3=C(C)C[C@@]2(C)O3)[C@@H]1O (stereo partly shown) [Compound (8), N-demethyl-14-hydroxy-N-ethyl-8,9-anhydroerythromycin A 6,9-hemiacetal] | basic fat-soluble properties | 1.8 | stronger GMS activity than the respective starting compounds | strong gastrointestinal motor promoting effect | –
